Results on one molecule are retold here after patent US20090325959A1 (priority 2008, published 2009).

A word on the IC50: it is the point on the concentration scale where inhibition reaches its midpoint.

Like-named read-outs stand apart in the source and are kept apart here.

Assay [1] deals with ova-sensitized, ova-challenged mice. Put plainly: Prevention of airway hyperreactivity (Penh, methacholine) in mouse ovalbumin sensitization model. Format: in vivo.
For assay [2], the system named is human monocytes. Put plainly: Human monocyte cytokine secretion assay (LPS-stimulated). It is filed as cell-based. Conditions: for IC50: Monocyte, LPS-stimulated human monocytes.
Experimental: Peripheral blood from healthy human volunteers was collected and the monocytes isolated via Ficoll-paque density centrifugation. […] The cells were allowed to pre-incubate with test compound at the indicated concentration for 30 minutes (37° C., 5% CO2, humidified air); after which the supernatant was removed and media containing compound and 1 ng/mL LPS was added. Cells were allowed to incubate with compounds and LPS for 4 hours at 37° C. after which the supernatant was removed and stored at −80° C. Cytokine concentrations in the supernatant were determined using commercially available Bio-Rad Bio-plex™ kits according the manufacturer's instructions.
Assay [3] addresses T1, ERK2 (Homo sapiens, UniProt P28482).
T1 construct: purchased Upstate, Millipore Bioscience Division (KinaseProfiler service)
Put plainly: Kinase panel screen (KinaseProfiler), ERK2. It is filed as biochemical. Here is the method:
(§1) Compounds of Formulae I and II were examined for activity against a selected panel of kinases using the KinaseProfiler™ enzyme profiling services (Upstate, Millipore Bioscience Division). Percent kinase activity at 10 μM and 1 μM test compound and 10 μM ATP was determined against 40 wild-type recombinant human kinases according to Upstate's standard protocol: ASK1, BTK, CSK, c-RAF, GCK, GSK3β, IKKα, IKKβ, IRAK1, IRAK4, JNK1α1, JNK2α2, JNK3, ERK1, ERK2, MAPKAP-K2, MAPKAP-K3, MEK1, MKK4, MKK6, MKK7β, Mnk2, MSK1, PAK3, PDK1, PRAK, ROCK1, Rsk2, SAPK2a, SAPK2b, SAPK3, SAPK4, SRPK1, SRPK2, Syk, TAK1, TBK1, PI3-Kβ, PI3-Kγ, PI3-Kδ.

For assay [4], the target named is T2, IRAK1 (Homo sapiens, UniProt P51617).
T2 construct: purchased Upstate, Millipore Bioscience Division (KinaseProfiler service)
T2 sequence (P51617 whole entry): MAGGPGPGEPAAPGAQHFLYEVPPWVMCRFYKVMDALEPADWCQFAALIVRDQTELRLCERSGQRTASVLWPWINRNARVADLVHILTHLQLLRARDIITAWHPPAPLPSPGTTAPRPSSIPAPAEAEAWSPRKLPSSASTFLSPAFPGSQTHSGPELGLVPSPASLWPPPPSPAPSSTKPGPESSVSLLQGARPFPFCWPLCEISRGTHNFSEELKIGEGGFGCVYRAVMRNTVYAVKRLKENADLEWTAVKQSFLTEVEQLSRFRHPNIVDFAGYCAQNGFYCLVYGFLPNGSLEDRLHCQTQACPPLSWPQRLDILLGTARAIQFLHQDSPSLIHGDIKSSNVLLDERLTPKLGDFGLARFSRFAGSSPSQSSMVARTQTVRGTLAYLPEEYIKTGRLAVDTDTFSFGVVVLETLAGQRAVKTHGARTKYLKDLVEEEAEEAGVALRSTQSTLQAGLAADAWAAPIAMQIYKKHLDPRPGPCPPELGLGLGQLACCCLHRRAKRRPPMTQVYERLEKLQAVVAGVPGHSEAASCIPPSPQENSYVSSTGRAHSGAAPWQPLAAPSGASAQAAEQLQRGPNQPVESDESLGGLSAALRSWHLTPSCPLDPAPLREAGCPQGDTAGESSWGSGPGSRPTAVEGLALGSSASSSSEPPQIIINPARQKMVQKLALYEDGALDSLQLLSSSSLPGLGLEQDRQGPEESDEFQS
As to the kind of experiment: Kinase panel screen (KinaseProfiler), IRAK1. Format: biochemical. Conditions: 10 μM ATP. The procedure: as §1

T1 sequence (P28482 whole entry): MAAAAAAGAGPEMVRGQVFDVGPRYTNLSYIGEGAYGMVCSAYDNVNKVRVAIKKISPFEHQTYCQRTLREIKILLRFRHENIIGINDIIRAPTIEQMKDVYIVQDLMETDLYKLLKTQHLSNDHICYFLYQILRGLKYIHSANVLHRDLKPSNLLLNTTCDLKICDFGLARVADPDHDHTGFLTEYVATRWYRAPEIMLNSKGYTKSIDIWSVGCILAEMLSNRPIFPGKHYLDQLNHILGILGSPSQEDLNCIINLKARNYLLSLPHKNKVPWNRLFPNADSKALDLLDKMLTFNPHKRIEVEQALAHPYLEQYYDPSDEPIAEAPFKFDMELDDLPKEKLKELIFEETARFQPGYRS

On to `NC(=O)Cn1ccc2cc(CN3CC[C@@H](Nc4cccc5cnccc45)C3)ccc21` [Compound 2.059, (R)-2-(5-((3-(isoquinolin-5-ylamino)pyrrolidin-1-yl)methyl)-1H-indol-1-yl)acetamide], for which the “log10AUC (Penh)” value in assay [1] (0.5 μmol/kg/intratracheal, days 27 to 31) is given as 1.9979. Also, in assay [1] (intratracheal once a day during days 27 to 31), the airway hyperreactivity entry was “prevention of airway hyperreactivity”. Further, the IC50 in assay [2] (read-out: IC50 for inhibition of IL-1β secretion) is 169 ± 13 nM; in assay [2] (read-out: IC50 for inhibition of IL-9 secretion), 269 ± 28.1 nM; in assay [2] (read-out: IC50 for inhibition of TNF-α secretion), 207 ± 17 nM. Moreover, the “IL-6, %” value in assay [2] (average percent of stimulated IL-6 secretion from human monocytes at 10 μM of test compound) is 0.0%. Moreover, in assay [3], the “ERK2 Percent inhibition, 1 μM” value was 56%. Moreover, the “ERK2 Percent inhibition, 10 μM” value in assay [3] was 12%. Also, in assay [3] (1 μM, read-out: ERK2 inhibited), the inhibition at 1 µM is approximately 50%. Moreover, the activity at 1 µM in assay [4] (1 μM test compound, read-out: IRAK1 Percent inhibition, 1 μM) came to 87%. For the same molecule, the activity at 10 µM in assay [4] (10 μM test compound, read-out: IRAK1 Percent inhibition, 10 μM) amounted to 30%.
